Our source for the IC50 values is patent publication US11845730B2, “1,3-substituted cyclobutyl derivatives and uses thereof” (Novartis AG, priority 2021, dated 2023).

SMILES strings stand for the structures. Structures can show the parent of a compound that is named as a salt.

Sequence of human TRPV1 (Q8NER1 whole entry): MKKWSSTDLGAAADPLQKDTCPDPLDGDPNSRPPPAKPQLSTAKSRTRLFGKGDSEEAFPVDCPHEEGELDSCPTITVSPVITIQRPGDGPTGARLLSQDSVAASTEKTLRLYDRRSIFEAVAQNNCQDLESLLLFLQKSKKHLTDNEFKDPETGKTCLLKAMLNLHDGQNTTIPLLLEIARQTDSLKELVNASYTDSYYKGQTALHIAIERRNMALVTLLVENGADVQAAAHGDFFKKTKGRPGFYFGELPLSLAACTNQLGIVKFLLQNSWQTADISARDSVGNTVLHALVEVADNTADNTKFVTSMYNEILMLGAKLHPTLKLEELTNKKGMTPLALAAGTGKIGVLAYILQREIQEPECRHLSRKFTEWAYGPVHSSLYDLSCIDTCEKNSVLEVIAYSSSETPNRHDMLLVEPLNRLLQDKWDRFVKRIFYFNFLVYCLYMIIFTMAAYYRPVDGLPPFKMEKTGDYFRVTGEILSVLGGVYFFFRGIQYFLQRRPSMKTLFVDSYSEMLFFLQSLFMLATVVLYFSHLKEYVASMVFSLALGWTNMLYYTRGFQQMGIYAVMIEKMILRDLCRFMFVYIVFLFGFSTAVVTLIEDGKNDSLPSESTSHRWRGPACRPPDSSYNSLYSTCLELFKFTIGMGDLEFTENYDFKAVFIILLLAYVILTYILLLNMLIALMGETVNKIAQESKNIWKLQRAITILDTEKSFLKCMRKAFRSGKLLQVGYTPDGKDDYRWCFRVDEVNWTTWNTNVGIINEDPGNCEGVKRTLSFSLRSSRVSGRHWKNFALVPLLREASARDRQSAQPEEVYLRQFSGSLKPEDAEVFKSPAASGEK

The experiment addresses human TRPV1 (Homo sapiens (Human), UniProt Q8NER1). Particulars: read-out: IC50 (μM), antagonist effect against human TRPV1; CHO cells expressing human TrpV1; stimulated with 2.5 μM NADA (EC80); mean of at least three independent experiments.
Protocol: Chinese Hamster Ovary (CHO) cells transfected to express human TrpV1 receptor (which are herein referred to as CHO-huTrpV1 cells), were grown in F-12 Ham's Nutrient Mixture media (HyClone SH30026.01) supplemented with 10% Fetal Bovine Serum (Invitrogen #26140-079), 1% Antibiotic/antimycotic (Invitrogen #15240-062) and 500 ug/mL geneticin (ThermoFisher scientific #1031035). Cells were grown in T-75 flasks at 37° C. incubator with 5% CO2. The cells were passaged twice a week at a ratio of 1:10 to 1:20 to maintain steady growth. For experimentation, cells were harvested at approximately 80% confluency and plated onto 384 well black cell culture plates (cat #781091, Greinier Bio-One Inc.) at 15,000 cells per well in 20 μl media and grown overnight.
The loading dye was prepared following instruction of Calcium 6 assay kit (Molecular Probes, #R8190): 10 ml buffer from bottle B was added to 1 vial of bottle A (adapted to room temperature from −20° C.) and mixed well, then 2.5 mM of fresh prepared probenecid, was added and mixed well. 20 μl/well of loading dye was added on top of the cells, and incubated at 37° C. for 1 hour 30 min.
Assay buffer preparation: 1×HBSS, 2 mM HEPES, 0.1% BSA plus 2.5 mM freshly prepared probenecid (Invitrogen, #P36400). 25 μl/well assay buffer in 384 well clear plate (cat #782281, Greiner Bio-one) was dispensed with buffer distributor (Multidrop ComB1 from Thermo Scientific). The compounds were in 384 Echo plate (cat #LPL0200, Labcyte) and the starting concentration of compound was 10 mM, then 1 to 3 serial dilution in 100% DMSO, 8 ul/well). 125 nl compounds was transferred to the 384 well plate containing 25 μl/well buffer with Echo® 555 Liquid Handler (Labcyte), such that the compound concentration was 5 fold of final concentration. The plate was shook slowly at 40 rpm/min for 10 min to mix. 10 μl of 5 fold compound in the buffer was transferred to the cell plate (containing 20 μl cells and 20 μl dye) using Vertical Pipetting Station 384ST (Agilent Technologies). Six fold of final concentration of NADA (N-arachidonyl dopamine, cat #A8848, Sigma) in the assay buffer was prepared and 30 μl/well was distributed in 384 well clear plate.
After compounds were added to the cell plate with loading dye, within 10-15 minutes, cell plate and plate containing NADA was placed into the FLIPR (Fluorescent Imaging Plate Reader) instrument (Tetra System, Molecular device). The TRPV1 receptor was stimulated by application of 10 μl per well of NADA. For testing the effect of compounds for possible antagonism, 2.5 μM NADA was used at the EC80 concentration.
For determination of antagonist IC50 values (concentration of antagonist that inhibits response to NADA by 50%), at least 10 antagonist concentration were measured in triplicate. The response in the presence of the antagonist was calculated as a percentage of the control response to NADA and was plotted against the concentration of the antagonist. The IC50 was estimated by non-linear regression analysis to sigmoidal-logistic curves by HELIOS (PROD 2) system. These values were averaged (means and standard error of the mean) for at least three independent experiments.
As for `Fc1ccc2cnccc2c1CN[C@H]1C[C@H](Oc2cccc(C(F)(F)F)c2)C1` [Example 71, (1r,3r)-N-((6-fluoroisoquinolin-5-yl)methyl)-3-(3-(trifluoromethyl)phenoxy)cyclobutan-1-amine, HCl], the IC50 was found to be 0.0316 µM.

In the case of `Fc1ccc(S[C@H]2C[C@H](NCc3cccc4cnccc34)C2)cc1C(F)(F)F` [Example 99, (1r,3r)-3-((4-fluoro-3-(trifluoromethyl)phenyl)thio)-N-(isoquinolin-5-ylmethyl)cyclobutan-1-amine, HCl], the IC50 worked out at 0.362 µM.

Consider `NS(=O)(=O)NCC(O)c1cc(F)c(CN[C@H]2C[C@H](Oc3ccc(F)c(C(F)(F)F)c3)C2)c2ccncc12` (stereo partly drawn) [Example 67, N-(2-(6-fluoro-5-((((1r,3r)-3-(4-fluoro-3-(trifluoromethyl)phenoxy)cyclobutyl)amino)methyl)isoquinolin-8-yl)-2-hydroxyethyl) sulfuric diamide], for which the IC50 turned out to be 0.00377 µM.

For `OCc1ccc(CN[C@H]2C[C@H](Oc3ccc(F)c(C(F)(F)F)c3)C2)c2ccncc12` [Example 25, (5-((((1r,3r)-3-(4-fluoro-3-(trifluoromethyl)phenoxy)cyclobutyl)amino)methyl)isoquinolin-8-yl)methanol, HCl], the IC50 stood at 0.1 µM.

For the compound `Nc1cc2c(CN[C@H]3C[C@H](Oc4ccnc(C(F)(F)F)c4)C3)c(F)cc(CO)c2cn1` [Example 20, (3-amino-6-fluoro-5-((((1r,3r)-3-((2-(trifluoromethyl)pyridin-4-yl)oxy)cyclobutyl)amino)methyl)isoquinolin-8-yl)methanol, HCl], the IC50 was 0.0872 µM.

Turning to `Fc1ccc(O[C@H]2C[C@H](NCc3c(F)ccc4cnccc34)C2)cc1F` [Example 27, (1r,3r)-3-(3,4-difluorophenoxy)-N-((6-fluoroisoquinolin-5-yl)methyl)cyclobutan-1-amine, HCl], the IC50 was determined as 0.023 µM.

As to `Nc1cc2c(CN[C@H]3C[C@H](Oc4ccc(F)cc4F)C3)c(F)ccc2cn1` [Example 15, 5-((((1r,3r)-3-(2,4-difluorophenoxy)cyclobutyl)amino)methyl)-6-fluoroisoquinolin-3-amine, HCl], the IC50 came to 0.051 µM.

As for `Nc1cc2c(CN[C@H]3C[C@H](Oc4ccnc(C(F)(F)F)c4)C3)c(F)ccc2cn1` [Example 16, 6-fluoro-5-((((1r,3r)-3-((2-(trifluoromethyl)pyridin-4-yl)oxy)cyclobutyl)amino)methyl)isoquinolin-3-amine, HCl], the IC50 turned out to be 0.031 µM.

With `Cc1ccc(O[C@H]2C[C@H](NCc3c(F)ccc4cnccc34)C2)cc1C` [Example 79, (1r,3r)-3-(3,4-dimethylphenoxy)-N-((6-fluoroisoquinolin-5-yl)methyl)cyclobutan-1-amine, HCl], the IC50 came to 0.147 µM.

Regarding `Fc1ccc2cnccc2c1CN[C@H]1C[C@H](Oc2ccc(OC(F)(F)F)cc2)C1` [Example 36, (1r,3r)-N-((6-fluoroisoquinolin-5-yl)methyl)-3-(4-(trifluoromethoxy)phenoxy)cyclobutan-1-amine, HCl], the IC50 is 0.0989 µM.

`Cc1ccc(CN[C@H]2C[C@H](Oc3ccc(F)c(C(F)(F)F)c3)C2)c2ccncc12` [Example 24, (1r,3r)-3-(4-fluoro-3-(trifluoromethyl)phenoxy)-N-((8-methylisoquinolin-5-yl)methyl)cyclobutan-1-amine, HCl]: the IC50 is 0.906 µM.

On to `O=C(O)C(O)c1cc(F)c(CN[C@H]2C[C@H](Oc3ccc(F)c(C(F)(F)F)c3)C2)c2ccncc12` (stereo partly drawn) [Example 72, 2-(6-fluoro-5-((((1r,3r)-3-(4-fluoro-3-(trifluoromethyl)phenoxy)cyclobutyl)amino)methyl)isoquinolin-8-yl)-2-hydroxyacetic acid], for which the IC50 amounted to 0.0521 µM.

Consider `OCC(O)c1cc(F)c(CN[C@H]2C[C@H](Oc3ccc(F)c(C(F)(F)F)c3)C2)c2ccncc12` (mixture of isomers) [Example 7 racemic, 1-(6-fluoro-5-((((1r,3r)-3-(4-fluoro-3-(trifluoromethyl)phenoxy)cyclobutyl)amino)methyl)isoquinolin-8-yl)ethane-1,2-diol], for which the concentration for half-maximal inhibition (IC50) amounted to 0.0104 µM.

On to `Nc1cc2c(CN[C@H]3C[C@H](Oc4ccc(F)c(C(F)(F)F)c4)C3)c(F)cc([C@@H](O)CO)c2cn1` (single isomer, unassigned; peak 1) [Example 21 peak 1], for which the half-maximal inhibitory concentration (IC50) was 0.00442 µM.

Consider `N#Cc1c(O[C@H]2C[C@H](NCc3c(F)ccc4cnccc34)C2)cccc1C(F)(F)F` [Example 61, 2-((1r,3r)-3-(((6-fluoroisoquinolin-5-yl)methyl)amino)cyclobutoxy)-6-(trifluoromethyl)benzonitrile], for which the IC50 was found to be 0.194 µM.

Turning to `Fc1ccc2cnccc2c1CN[C@H]1C[C@H](Oc2cccc(OC(F)F)c2)C1` [Example 29, (1r,3r)-3-(3-(difluoromethoxy)phenoxy)-N-((6-fluoroisoquinolin-5-yl)methyl)cyclobutan-1-amine, HCl], the half-inhibitory concentration (IC50) came to 0.0623 µM.

Regarding `OCCC(O)c1cc(F)c(CNC2CC(Oc3ccc(F)c(C(F)(F)F)c3)C2)c2ccncc12` (racemic) [Example 9 racemic, 1-(6-fluoro-5-((((1r,3r)-3-(4-fluoro-3-(trifluoromethyl)phenoxy)cyclobutyl)amino)methyl)isoquinolin-8-yl)propane-1,3-diol], the IC50 worked out at 0.00058 µM.

For `Fc1ccc(S[C@H]2C[C@H](NCc3c(F)ccc4cnccc34)C2)cc1C(F)(F)F` [Example 100, (1r,3r)-3-((4-fluoro-3-(trifluoromethyl)phenyl)thio)-N-((6-fluoroisoquinolin-5-yl)methyl)cyclobutan-1-amine, HCl], the 50% inhibitory concentration (IC50) was found to be 0.074 µM.

Turning to `Fc1ccc2cnccc2c1CN[C@H]1C[C@H](Oc2ccc(C3CC3(F)F)cc2)C1` (stereo partly drawn) [Example 42, (1r,3r)-3-(4-(2,2-difluorocyclopropyl)phenoxy)-N-((6-fluoroisoquinolin-5-yl)methyl)cyclobutan-1-amine, HCO2H], the IC50 was 0.173 µM.

Regarding `Cc1cc(C)cc(O[C@H]2C[C@H](NCc3c(F)ccc4cnccc34)C2)c1` [Example 84, (1r,3r)-3-(3,5-dimethylphenoxy)-N-((6-fluoroisoquinolin-5-yl)methyl)cyclobutan-1-amine, HCl], the IC50 came to 0.722 µM.

In the case of `CCOC(=O)c1cccc(O[C@H]2C[C@H](NCc3c(F)ccc4cnccc34)C2)c1` [Example 34, ethyl 3-((1r,3r)-3-(((6-fluoroisoquinolin-5-yl)methyl)amino)cyclobutoxy)benzoate, HCl], the IC50 is 0.0836 µM.

Take `Nc1cc2c(CN[C@H]3C[C@H](Oc4ccc(F)c(C(F)(F)F)c4)C3)cccc2cn1` [Example 13, 5-((((1r,3r)-3-(4-fluoro-3-(trifluoromethyl)phenoxy)cyclobutyl)amino)methyl)isoquinolin-3-amine]: the IC50 amounted to 0.0637 µM.

Take `Fc1cc(CO[C@H]2C[C@H](NCc3c(F)ccc4cnccc34)C2)ccc1C(F)(F)F` [Example 64, (1r,3r)-3-((3-fluoro-4-(trifluoromethyl)benzyl)oxy)-N-((6-fluoroisoquinolin-5-yl)methyl)cyclobutan-1-amine]: the IC50 turned out to be 0.163 µM.

As to `Nc1cc2c(CN[C@H]3C[C@H](Oc4ccc(C(F)(F)F)nc4)C3)c(F)ccc2cn1` [Example 17, 6-fluoro-5-((((1r,3r)-3-((6-(trifluoromethyl)pyridin-3-yl)oxy)cyclobutyl)amino)methyl)isoquinolin-3-amine, HCl], the IC50 came out at 0.13 µM.

For `N#Cc1ccc(O[C@H]2C[C@H](NCc3c(F)ccc4cnccc34)C2)cc1C(F)(F)F` [Example 86, 4-((1r,3r)-3-(((6-fluoroisoquinolin-5-yl)methyl)amino)cyclobutoxy)-2-(trifluoromethyl)benzonitrile, HCl], the IC50 came to 0.0693 µM.

For `Fc1ccc(O[C@H]2C[C@H](NCc3cccc4cnc(Cl)cc34)C2)cc1C(F)(F)F` [Example 98, (1r,3r)-N-((3-chloroisoquinolin-5-yl)methyl)-3-(4-fluoro-3-(trifluoromethyl)phenoxy)cyclobutan-1-amine, HCl], the IC50 was 0.418 µM.

Take `Fc1ccc2cnccc2c1CN[C@H]1C[C@H](Oc2ccc(C(F)(F)F)nc2F)C1` [Example 58, (1r,3r)-3-((2-fluoro-6-(trifluoromethyl)pyridin-3-yl)oxy)-N-((6-fluoroisoquinolin-5-yl)methyl)cyclobutan-1-amine]: the IC50 stood at 0.0829 µM.

Regarding `Nc1cc2c(CC(=O)N[C@H]3C[C@H](Oc4ccc(F)c(C(F)(F)F)c4)C3)c(F)ccc2cn1` [Example 69, 2-(3-amino-6-fluoroisoquinolin-5-yl)-N-((1r,3r)-3-(4-fluoro-3-(trifluoromethyl)phenoxy)cyclobutyl)acetamide], the IC50 was determined as 0.00015 µM.

As to `Cc1cc(O[C@H]2C[C@H](NCc3c(F)ccc4cnccc34)C2)cc(F)c1F` [Example 54, (1r,3r)-3-(3,4-difluoro-5-methylphenoxy)-N-((6-fluoroisoquinolin-5-yl)methyl)cyclobutan-1-amine], the IC50 was determined as 0.0595 µM.

Take `Nc1ccc(CN[C@H]2C[C@H](Oc3ccc(F)c(C(F)(F)F)c3)C2)c2ccncc12` [Example 5, 5-((((1r,3r)-3-(4-fluoro-3-(trifluoromethyl)phenoxy)cyclobutyl)amino)methyl)isoquinolin-8-amine, HCl]: the IC50 is 0.259 µM.

As to `CCc1ccc2cnccc2c1CN[C@H]1C[C@H](Oc2ccc(F)c(C(F)(F)F)c2)C1` [Example 97, (1r,3r)-N-((6-ethylisoquinolin-5-yl)methyl)-3-(4-fluoro-3-(trifluoromethyl)phenoxy)cyclobutan-1-amine, HCl], the IC50 worked out at 0.28 µM.

Take `CN(C)c1ccc2cnccc2c1CN[C@H]1C[C@H](Oc2ccc(F)c(C(F)(F)F)c2)C1` [Example 81, 5-((((1r,3r)-3-(4-fluoro-3-(trifluoromethyl)phenoxy)cyclobutyl)amino)methyl)-N,N-dimethylisoquinolin-6-amine, HCl]: the IC50 was determined as 0.255 µM.

With `O=C(Cc1cccc2cnccc12)N[C@H]1C[C@H](Oc2ccc(F)c(C(F)(F)F)c2)C1` [Example 65, N-((1r,3r)-3-(4-fluoro-3-(trifluoromethyl)phenoxy)cyclobutyl)-2-(isoquinolin-5-yl)acetamide], the IC50 was found to be 0.00098 µM.

Broadly, the IC50 is the concentration needed to halve the response being measured.
